Data reported in US11415579B2, “Assay for measuring a rate of reaction between a target and a ligand candidate” (Imperial College Innovations Ltd., priority 2016, dated 2022).

Tests used:
[1] = Kinetic thiol consumption assay with model thiol glutathione; format: physicochemical; design: Rate constant with glutathione (k(GSH)): unit not given here; details: for Rate constant with glutathione (k(GSH)): 500 μM ligand, 5 μM thiol, phosphate buffer pH 8; for Rate constant with Glutathione: Protein: Glutathione, cysteine position NA, in h-1
Method in brief: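 First, 5 μM glutathione in degassed phosphate buffer (pH 8) receives immobilized TCEP beads (2% v/v). Then acrylamide is added and plates incubate 1 h at room temperature. Finally, fluorescence (380/470 nm) is normalized and fitted to first-order decay for rate constants.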

[2] = biological target: T1, human cyclin-dependent kinase 2 (Cdk2) (Homo sapiens, UniProt P24941); experiment: Kinetic thiol consumption assay with wild type Cdk2 (C177); format: binding; design: key to Rate enhancement, Cdk2 WT: k(Cdk2) divided by k(model thiol); Rate constant with Cdk2 (k(Cdk2)): unit not given here; details: for Rate constant with Cdk2 (k(Cdk2)): 500 μM ligand, 5 μM thiol, phosphate buffer pH 8; for Rate enhancement, Cdk2 WT: no additional mutations; for Rate constant with Cdk2 WT: Protein: Cdk2, cysteine position WT, in h^-1; for k(Cdk2)/k(Cdk2_mut) rate enhancement: model thiol Cdk2[C177A, F80C, K278C]; for k(Cdk2)/k(GSH) rate enhancement: model thiol glutathione
T1 construct: poly-histidine; made in house; host or cells: E. coli
Method in brief: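 Thiol 5 μM (Cdk2 or model thiol), degassed phosphate buffer pH 8, TCEP beads 2% v/v. Plates incubated 1 h RT, ex/em 380/470 nm. First-order decay fit → rate constant; ratio Cdk2/model thiol = rate enhancement.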

Cdk2[C177A, F80C, K278C] = biological target: T2, Cdk2[C177A, F80C, K278C] (Homo sapiens, UniProt P24941, C177A/F80C/K278C); experiment: Kinetic thiol consumption assay with mutant Cdk2 as model thiol; format: binding; design: unit not given here; details: 500 μM ligand, 5 μM thiol, phosphate buffer pH 8
T2 construct: poly-histidine; made in house; host or cells: E. coli
Method in brief: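 Model thiol: His-tagged human Cdk2 C177A/F80C/K278C (two engineered surface cysteines), E. coli-expressed, 5 μM in degassed phosphate buffer pH 8 with immobilized TCEP beads (2% v/v). Fluorescence (ex/em 380/470 nm) followed over time at room temperature, normalized to DMSO/thiol control. First-order decay fit gives rate constants.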

Cdk2(C177A, F80C) = biological target: T3, Cdk2(C177A, F80C) (Homo sapiens, UniProt P24941, C177A/F80C); experiment: Kinetic thiol consumption assay with Cdk2 mutant F80C, incl. kobs versus concentration (Kd, k2); format: binding; design: key to Rate enhancement, Cdk2 F80C: Cdk2 rate constant divided by model-thiol rate constant; details: additional mutation C177A; for Rate constant with Cdk2 F80C: Protein: Cdk2, cysteine position F80C, in h^-1
T3 construct: poly-histidine; made in house; host or cells: E. coli
Method in brief: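 His-tagged Cdk2(C177A/F80C) from E. coli or model thiol, 5 μM in degassed phosphate buffer pH 8 with TCEP beads, reacted with acrylamide ligands; fluorescence (ex/em 380/470 nm) normalized to DMSO control and fitted to first-order decay for kobs. Kd and k2 obtained from hyperbolic fit of kobs versus ligand concentration.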

Cdk2(H71C) (C177A) = biological target: T4, Cdk2(H71C) (C177A) (Homo sapiens, UniProt P24941, C177A/H71C); experiment: Kinetic thiol consumption assay with Cdk2 mutant H71C; format: binding; design: key to Rate enhancement, Cdk2 H71C: rate constant with Cdk2 ÷ rate constant with model thiol (fold); details: additional mutation C177A; for Rate constant with Cdk2 H71C: Protein: Cdk2, cysteine position H71C, in h^-1
T4 construct: poly-histidine; made in house; host or cells: E. coli
Method in brief: (§1)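 His-tagged single-surface-cysteine Cdk2 mutants (C177A background) from E. coli, 5 μM in degassed phosphate buffer pH 8, pre-treated with immobilized TCEP beads. Fluorescence (ex/em 380/470 nm) read after 1 h at room temperature, normalized to DMSO/thiol-only control; first-order decay fits gave rate constants, divided by model-thiol rate for rate enhancement.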

Cdk2(S276C) (C177A) = biological target: T5, Cdk2(S276C) (C177A) (Homo sapiens, UniProt P24941, C177A/S276C); experiment: Kinetic thiol consumption assay with Cdk2 mutant S276C; format: binding; design: key to Rate enhancement, Cdk2 S276C: rate constant with Cdk2 ÷ rate constant with model thiol (fold); details: additional mutation C177A; for Rate constant with Cdk2 S276C: Protein: Cdk2, cysteine position S276C, in h^-1
T5 construct: poly-histidine; made in house; host or cells: E. coli
Method in brief: as §1

Cdk2(N272C) (C177A) = biological target: T6, Cdk2(N272C) (C177A) (Homo sapiens, UniProt P24941, C177A/N272C); experiment: Kinetic thiol consumption assay with Cdk2 mutant N272C; format: binding; design: key to Rate enhancement, Cdk2 N272: rate constant with Cdk2 ÷ rate constant with model thiol (fold); details: for Rate enhancement, Cdk2 N272: Cdk2 N272, additional mutation C177A; for Rate constant with Cdk2 N272C: Protein: Cdk2, cysteine position N272C, additional mutation C177A, in h^-1
T6 construct: poly-histidine; made in house; host or cells: E. coli
Method in brief: as §1

Cdk2(T182C) (C177A) = biological target: T7, Cdk2(T182C) (C177A) (Homo sapiens, UniProt P24941, C177A/T182C); experiment: Kinetic thiol consumption assay with Cdk2 mutant T182C; format: binding; design: key to Rate enhancement, Cdk2 T182C: rate constant with Cdk2 ÷ rate constant with model thiol (fold); details: additional mutation C177A; for Rate constant with Cdk2 T182C: Protein: Cdk2, cysteine position T182C, in h^-1
T7 construct: poly-histidine; made in house; host or cells: E. coli
Method in brief: as §1

Cdk2(R122C) (C177A) = biological target: T8, Cdk2(R122C) (C177A) (Homo sapiens, UniProt P24941, C177A/R122C); experiment: Kinetic thiol consumption assay with Cdk2 mutant R122C; format: binding; design: key to Rate enhancement, Cdk2 R122C: rate constant with Cdk2 ÷ rate constant with model thiol (fold); details: additional mutation C177A; for Rate constant with Cdk2 R122C: Protein: Cdk2, cysteine position R122C, in h-1
T8 construct: poly-histidine; made in house; host or cells: E. coli
Method in brief: as §1

Cdk2(S181C) (C177A) = biological target: T9, Cdk2(S181C) (C177A) (Homo sapiens, UniProt P24941, C177A/S181C); experiment: Kinetic thiol consumption assay with Cdk2 mutant S181C; format: binding; design: key to Rate enhancement, Cdk2 S181C: rate constant with Cdk2 ÷ rate constant with model thiol (fold); details: additional mutation C177A; for Rate constant with Cdk2 S181C: Protein: Cdk2, cysteine position S181C, in h^-1
T9 construct: poly-histidine; made in house; host or cells: E. coli
Method in brief: as §1

| SMILES | Rate constant with Cdk2 (k(Cdk2)) [2] | Rate enhancement, Cdk2 WT [2] | Rate constant with Cdk2 WT [2] | k(Cdk2)/k(Cdk2_mut) rate enhancement [2] | k(Cdk2)/k(GSH) rate enhancement [2] | Rate constant with Cdk2[C177A, F80C, K278C] (k(Cdk2_mut)) (Cdk2[C177A, F80C, K278C]) | Rate enhancement, Cdk2 F80C (Cdk2(C177A, F80C)) | Rate enhancement, Cdk2 H71C (Cdk2(H71C) (C177A)) | Rate enhancement, Cdk2 S276C (Cdk2(S276C) (C177A)) | Rate enhancement, Cdk2 N272 (Cdk2(N272C) (C177A)) | Rate constant with Cdk2 N272C (Cdk2(N272C) (C177A)) | Rate enhancement, Cdk2 T182C (Cdk2(T182C) (C177A)) | Rate constant with Cdk2 T182C (Cdk2(T182C) (C177A)) | Rate enhancement, Cdk2 R122C (Cdk2(R122C) (C177A)) | Rate enhancement, Cdk2 S181C (Cdk2(S181C) (C177A)) | Rate constant with Cdk2 S181C (Cdk2(S181C) (C177A)) | Rate constant with glutathione (k(GSH)) [1] | Rate constant with Glutathione [1] | Rate constant with Cdk2 S276C (Cdk2(S276C) (C177A)) | Rate constant with Cdk2 R122C (Cdk2(R122C) (C177A)) | other results |
| --- | --- | --- | --- | --- | --- | --- | --- | --- | --- | --- | --- | --- | --- | --- | --- | --- | --- | --- | --- | --- | --- |
| C=CC(=O)NCc1ccccc1 [CA-009] | 0.00446 | 2.404 | 0.01679 | 1.108 | – | 0.00402 | 0.5029 | 0.2836 | 0.8186 | 1.318 | 0.009206 | 21.57 | 0.1507 | 0.5794 | 0.4707 | 0.003288 | – | 0.006985 | 0.005718 | 0.004047 | Rate constant with Cdk2 F80C (Cdk2(C177A, F80C)): 0.003513; Rate constant with Cdk2 H71C (Cdk2(H71C) (C177A)): 0.001981 |
| C=CC(=O)Nc1ccccc1N1CCOCC1 [CA-030] | 0.01069 | 0.639 | 0.01069 | 0.277 | 0.6723 | 0.03859 | 1.494 | 0.1317 | 0.2657 | 0.2409 | 0.00403 | 0.5957 | 0.009966 | 0.2896 | 0.7478 | 0.01251 | 0.0159 | 0.01673 | 0.004445 | 0.004845 | Rate constant with Cdk2 F80C (Cdk2(C177A, F80C)): 0.025; Rate constant with Cdk2 H71C (Cdk2(H71C) (C177A)): 0.002204 |
| C=CC(=O)N1CCC2CCC(C1)N2C (stereo not drawn) [CA-143] | 0.01115 | 0.3803 | 0.01115 | 2.207 | 0.3805 | 0.00505 | 0.1014 | 0.08025 | 0.6344 | 0.4942 | 0.01449 | 2.359 | 0.06917 | 0.2049 | 0.9178 | 0.02691 | 0.0293 | 0.02932 | 0.0186 | 0.006009 | Rate constant with Cdk2 F80C (Cdk2(C177A, F80C)): 0.002972; Rate constant with Cdk2 H71C (Cdk2(H71C) (C177A)): 0.002353 |

Further lines, with some results ahead:

| Rate constant with Cdk2 (k(Cdk2)) [2] | Rate enhancement, Cdk2 WT [2] | Rate constant with Cdk2 WT [2] | k(Cdk2)/k(Cdk2_mut) rate enhancement [2] | k(Cdk2)/k(GSH) rate enhancement [2] | Rate constant with Cdk2[C177A, F80C, K278C] (k(Cdk2_mut)) (Cdk2[C177A, F80C, K278C]) | Rate enhancement, Cdk2 F80C (Cdk2(C177A, F80C)) | Rate enhancement, Cdk2 H71C (Cdk2(H71C) (C177A)) | Rate enhancement, Cdk2 S276C (Cdk2(S276C) (C177A)) | Rate enhancement, Cdk2 N272 (Cdk2(N272C) (C177A)) | Rate constant with Cdk2 N272C (Cdk2(N272C) (C177A)) | Rate enhancement, Cdk2 T182C (Cdk2(T182C) (C177A)) | Rate constant with Cdk2 T182C (Cdk2(T182C) (C177A)) | Rate enhancement, Cdk2 R122C (Cdk2(R122C) (C177A)) | Rate enhancement, Cdk2 S181C (Cdk2(S181C) (C177A)) | Rate constant with Cdk2 S181C (Cdk2(S181C) (C177A)) | SMILES | Rate constant with glutathione (k(GSH)) [1] | Rate constant with Glutathione [1] | Rate constant with Cdk2 S276C (Cdk2(S276C) (C177A)) | Rate constant with Cdk2 R122C (Cdk2(R122C) (C177A)) | other results |
| --- | --- | --- | --- | --- | --- | --- | --- | --- | --- | --- | --- | --- | --- | --- | --- | --- | --- | --- | --- | --- | --- |
| 0.00166 | 0.579 | 0.001657 | 1.317 | 0.813 | 0.00126 | 0 | 0 | 0 | 0.1784 | 0.0005105 | 0.5328 | 0.001525 | 0 | 0.5143 | 0.001472 | C=CC(=O)NCc1ccc(-c2ccccc2)cc1 [EL-1050] | 0.00204 | 0.002862 | – | – | – |
| 0.00187 | 0.2802 | 0.0005702 | 0.6155 | 1.327 | 0.00304 | 0 | 0 | 1.14 | 0.7499 | 0.001526 | 1.425 | 0.0029 | 0.8889 | 0.6334 | 0.001289 | C=CC(=O)N1CCC2(CC1)CC2C(=O)OC (stereo not drawn) [CA-039] | 0.00141 | 0.002035 | 0.002319 | 0.001809 | – |
